Assay results reported in PubChem BioAssay (NCI).
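Each compound was tested at five concentrations against cells in 96-well plates for 48 hours. TGI: concentration producing complete growth inhibition.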

How the values were obtained:
Assay in all cases: NCI tumour cell line growth inhibition, 48 h
NCI-H460 lung = tested on: NCI-H460 lung
UACC-62 melanoma = tested on: UACC-62 melanoma
HCC-2998 colon = tested on: HCC-2998 colon
T-47D breast = tested on: T-47D breast
HOP-92 NSCLC = tested on: HOP-92 NSCLC
MALME-3M melanoma = tested on: MALME-3M melanoma
SF-268 CNS = tested on: SF-268 CNS
PC-3 prostate = tested on: PC-3 prostate
MDA-N = tested on: MDA-N
UO-31 renal = tested on: UO-31 renal
MOLT-4 leukemia = tested on: MOLT-4 leukemia
KM12 colon = tested on: KM12 colon
OVCAR-4 ovarian = tested on: OVCAR-4 ovarian
K-562 leukemia = tested on: K-562 leukemia
NCI-H226 lung = tested on: NCI-H226 lung
SNB-19 CNS = tested on: SNB-19 CNS
IGROV1 ovarian = tested on: IGROV1 ovarian
MDA-MB-231 breast = tested on: MDA-MB-231 breast
SK-OV-3 ovarian = tested on: SK-OV-3 ovarian
RPMI-8226 leukemia = tested on: RPMI-8226 leukemia
TK-10 renal = tested on: TK-10 renal
NCI/ADR-RES ovarian = tested on: NCI/ADR-RES ovarian
NCI-H522 lung = tested on: NCI-H522 lung
NCI-H23 lung = tested on: NCI-H23 lung
OVCAR-3 ovarian = tested on: OVCAR-3 ovarian
HCT-15 colon = tested on: HCT-15 colon
A498 renal = tested on: A498 renal
RXF 393 renal = tested on: RXF 393 renal
HCT-116 colon = tested on: HCT-116 colon
HL-60(TB) leukemia = tested on: HL-60(TB) leukemia
SK-MEL-5 melanoma = tested on: SK-MEL-5 melanoma
BT-549 breast = tested on: BT-549 breast
HOP-62 NSCLC = tested on: HOP-62 NSCLC
U251 CNS = tested on: U251 CNS
SW-620 colon = tested on: SW-620 colon
LOX IMVI melanoma = tested on: LOX IMVI melanoma
CCRF-CEM leukemia = tested on: CCRF-CEM leukemia
HT29 colon = tested on: HT29 colon
A549 NSCLC = tested on: A549 NSCLC
ACHN renal = tested on: ACHN renal
SR leukemia = tested on: SR leukemia
SN12C renal = tested on: SN12C renal
SF-539 CNS = tested on: SF-539 CNS
786-0 renal = tested on: 786-0 renal
OVCAR-8 ovarian = tested on: OVCAR-8 ovarian
SF-295 CNS = tested on: SF-295 CNS
SK-MEL-28 melanoma = tested on: SK-MEL-28 melanoma
MDA-MB-435 = tested on: MDA-MB-435
SNB-75 CNS = tested on: SNB-75 CNS
OVCAR-5 ovarian = tested on: OVCAR-5 ovarian
COLO 205 colon = tested on: COLO 205 colon
DU-145 prostate = tested on: DU-145 prostate
HS 578T breast = tested on: HS 578T breast
M14 melanoma = tested on: M14 melanoma
MCF7 breast = tested on: MCF7 breast

Cc1cc(=O)n2nc(SCc3ccccc3)sc2n1
TGI (NCI-H460 lung): > 100 µM | TGI (UACC-62 melanoma): > 100 µM | TGI (HCC-2998 colon): > 100 µM | TGI (T-47D breast): > 100 µM | TGI (HOP-92 NSCLC): > 100 µM | TGI (MALME-3M melanoma): > 100 µM | TGI (SF-268 CNS): > 100 µM | TGI (PC-3 prostate): > 100 µM | TGI (MDA-N): > 100 µM | TGI (UO-31 renal): 67.5 µM | TGI (MOLT-4 leukemia): > 100 µM | TGI (KM12 colon): > 100 µM | TGI (OVCAR-4 ovarian): > 100 µM | TGI (K-562 leukemia): > 100 µM | TGI (NCI-H226 lung): > 100 µM | TGI (SNB-19 CNS): > 100 µM | TGI (IGROV1 ovarian): > 100 µM | TGI (MDA-MB-231 breast): > 100 µM | TGI (SK-OV-3 ovarian): > 100 µM | TGI (RPMI-8226 leukemia): > 100 µM | TGI (TK-10 renal): > 100 µM | TGI (NCI/ADR-RES ovarian): > 100 µM | TGI (NCI-H522 lung): > 100 µM | TGI (NCI-H23 lung): > 100 µM | TGI (OVCAR-3 ovarian): > 100 µM | TGI (HCT-15 colon): > 100 µM | TGI (A498 renal): > 100 µM | TGI (RXF 393 renal): > 100 µM | TGI (HCT-116 colon): > 100 µM | TGI (HL-60(TB) leukemia): > 100 µM | TGI (SK-MEL-5 melanoma): > 100 µM | TGI (BT-549 breast): > 100 µM | TGI (HOP-62 NSCLC): > 100 µM | TGI (U251 CNS): > 100 µM | TGI (SW-620 colon): > 100 µM | TGI (LOX IMVI melanoma): > 100 µM | TGI (CCRF-CEM leukemia): > 100 µM | TGI (HT29 colon): > 100 µM | TGI (A549 NSCLC): > 100 µM | TGI (ACHN renal): 56.2 µM | TGI (SR leukemia): > 100 µM | TGI (SN12C renal): > 100 µM | TGI (SF-539 CNS): > 100 µM | TGI (786-0 renal): > 100 µM | TGI (OVCAR-8 ovarian): > 100 µM | TGI (SF-295 CNS): > 100 µM | TGI (SK-MEL-28 melanoma): > 100 µM | TGI (MDA-MB-435): > 100 µM | TGI (SNB-75 CNS): > 100 µM | TGI (OVCAR-5 ovarian): > 100 µM | TGI (COLO 205 colon): > 100 µM | TGI (DU-145 prostate): > 100 µM | TGI (HS 578T breast): > 100 µM | TGI (M14 melanoma): > 100 µM | TGI (MCF7 breast): > 100 µM
